Data published in US8691753B2 (priority 2009, dated 2014).
pKi: −log10 of the molar value. Read-outs that look alike come from different tables or passages of the source.

What was measured:
Format in all cases: biochemical
MMP-2h = MMP-2h (Homo sapiens (Human), UniProt P08253); assay: Inhibition constant (Ki) on MMP-2h; details: human MMP-2
Source text: (§1) The inhibition constant Ki of these compounds has been determined according to the protocol described by Devel et al, 2006, J. Biol. Chem. (7).
(§2) In this table I and also in table II below, “h” corresponds to human. All of the compounds have therefore been evaluated on human MMPs.

MMP-3h = MMP-3h (Homo sapiens (Human), UniProt P08254); assay: Inhibition constant (Ki) on MMP-3h; details: human MMP-3
Sequence of MMP-3h (P08254 100-477): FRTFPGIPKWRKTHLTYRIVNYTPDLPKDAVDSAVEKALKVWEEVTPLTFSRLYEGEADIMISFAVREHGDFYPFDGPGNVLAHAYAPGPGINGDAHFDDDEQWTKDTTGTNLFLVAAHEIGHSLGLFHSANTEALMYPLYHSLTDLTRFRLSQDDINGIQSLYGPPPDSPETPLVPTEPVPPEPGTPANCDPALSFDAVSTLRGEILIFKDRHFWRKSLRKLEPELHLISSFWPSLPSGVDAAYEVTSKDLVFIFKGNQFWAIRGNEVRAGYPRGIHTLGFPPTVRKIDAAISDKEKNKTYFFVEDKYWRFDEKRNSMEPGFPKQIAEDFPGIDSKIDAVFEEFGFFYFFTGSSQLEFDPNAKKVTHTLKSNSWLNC
Source text: as §1, §2

MMP-8h = MMP-8h (Homo sapiens (Human), UniProt P22894); assay: Inhibition constant (Ki) on MMP-8h; details: human MMP-8
Sequence of MMP-8h (P22894 101-467): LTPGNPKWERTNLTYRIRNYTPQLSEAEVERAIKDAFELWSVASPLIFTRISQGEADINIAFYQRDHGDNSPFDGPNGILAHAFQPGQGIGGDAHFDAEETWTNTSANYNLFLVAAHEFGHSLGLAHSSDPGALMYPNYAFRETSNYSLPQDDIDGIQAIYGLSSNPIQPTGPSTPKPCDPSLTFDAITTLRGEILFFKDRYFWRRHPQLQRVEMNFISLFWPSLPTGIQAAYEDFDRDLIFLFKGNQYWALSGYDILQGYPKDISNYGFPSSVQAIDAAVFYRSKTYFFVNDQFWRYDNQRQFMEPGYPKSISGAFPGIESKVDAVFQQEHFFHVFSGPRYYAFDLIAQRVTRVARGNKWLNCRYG

MMP-9h = MMP-9h (Homo sapiens (Human), UniProt P14780); assay: Inhibition constant (Ki) on MMP-9h; details: human MMP-9
Sequence of MMP-9h (P14780 94-707): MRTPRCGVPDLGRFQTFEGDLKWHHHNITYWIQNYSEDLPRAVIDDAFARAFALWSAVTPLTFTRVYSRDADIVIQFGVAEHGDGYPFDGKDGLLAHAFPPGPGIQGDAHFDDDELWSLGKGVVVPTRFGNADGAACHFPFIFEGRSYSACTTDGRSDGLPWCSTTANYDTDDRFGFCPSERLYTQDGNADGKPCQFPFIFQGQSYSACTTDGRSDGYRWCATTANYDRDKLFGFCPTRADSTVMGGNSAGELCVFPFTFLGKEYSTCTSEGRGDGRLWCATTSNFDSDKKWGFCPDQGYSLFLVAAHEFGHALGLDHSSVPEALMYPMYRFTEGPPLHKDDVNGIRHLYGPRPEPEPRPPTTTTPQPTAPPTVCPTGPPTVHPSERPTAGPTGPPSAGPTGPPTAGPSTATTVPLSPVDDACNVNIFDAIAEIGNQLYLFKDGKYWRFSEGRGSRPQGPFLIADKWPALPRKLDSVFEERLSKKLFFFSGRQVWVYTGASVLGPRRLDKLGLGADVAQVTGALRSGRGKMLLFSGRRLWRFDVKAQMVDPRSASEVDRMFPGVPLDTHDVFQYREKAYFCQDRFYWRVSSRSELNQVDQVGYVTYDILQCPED
Source text: as §1, §2

MMP-10h = MMP-10h (Homo sapiens (Human), UniProt P09238); assay: Inhibition constant (Ki) on MMP-10h; details: human MMP-10
Sequence of MMP-10h (P09238 99-476): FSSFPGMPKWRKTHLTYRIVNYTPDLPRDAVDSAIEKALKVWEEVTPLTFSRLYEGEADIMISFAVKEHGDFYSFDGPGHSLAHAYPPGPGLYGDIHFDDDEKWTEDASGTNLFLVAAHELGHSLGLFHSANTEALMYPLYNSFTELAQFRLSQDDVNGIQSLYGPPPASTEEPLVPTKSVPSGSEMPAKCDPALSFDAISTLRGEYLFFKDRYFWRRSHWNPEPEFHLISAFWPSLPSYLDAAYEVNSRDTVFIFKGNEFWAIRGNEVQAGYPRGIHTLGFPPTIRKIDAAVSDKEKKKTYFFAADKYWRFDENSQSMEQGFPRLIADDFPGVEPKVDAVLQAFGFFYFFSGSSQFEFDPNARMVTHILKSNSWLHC

MMP-12h = MMP-12h (Homo sapiens (Human), UniProt P39900); assay: Inhibition constant (Ki) on MMP-12h; details: human MMP-12
Sequence of MMP-12h (P39900 106-470): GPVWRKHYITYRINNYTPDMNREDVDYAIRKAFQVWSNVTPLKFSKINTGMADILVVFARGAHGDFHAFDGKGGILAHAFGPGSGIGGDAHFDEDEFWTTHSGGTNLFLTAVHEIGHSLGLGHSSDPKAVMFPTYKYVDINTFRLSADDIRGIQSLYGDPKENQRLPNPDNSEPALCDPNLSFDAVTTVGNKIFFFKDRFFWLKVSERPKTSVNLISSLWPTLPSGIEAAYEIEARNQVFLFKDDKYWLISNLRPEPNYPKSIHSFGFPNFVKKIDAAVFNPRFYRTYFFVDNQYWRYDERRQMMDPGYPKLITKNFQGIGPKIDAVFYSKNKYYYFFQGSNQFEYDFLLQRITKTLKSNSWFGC

MMP-13h = MMP-13h (Homo sapiens (Human), UniProt P45452); assay: Inhibition constant (Ki) on MMP-13h; details: human MMP-13
Source text: as §1, §2

MMP-14h = MMP-14h (Homo sapiens (Human), UniProt P50281); assay: Inhibition constant (Ki) on MMP-14h; details: human MMP-14
Source text: as §1, §2

Sequence of MMP-2h (P08253 110-660): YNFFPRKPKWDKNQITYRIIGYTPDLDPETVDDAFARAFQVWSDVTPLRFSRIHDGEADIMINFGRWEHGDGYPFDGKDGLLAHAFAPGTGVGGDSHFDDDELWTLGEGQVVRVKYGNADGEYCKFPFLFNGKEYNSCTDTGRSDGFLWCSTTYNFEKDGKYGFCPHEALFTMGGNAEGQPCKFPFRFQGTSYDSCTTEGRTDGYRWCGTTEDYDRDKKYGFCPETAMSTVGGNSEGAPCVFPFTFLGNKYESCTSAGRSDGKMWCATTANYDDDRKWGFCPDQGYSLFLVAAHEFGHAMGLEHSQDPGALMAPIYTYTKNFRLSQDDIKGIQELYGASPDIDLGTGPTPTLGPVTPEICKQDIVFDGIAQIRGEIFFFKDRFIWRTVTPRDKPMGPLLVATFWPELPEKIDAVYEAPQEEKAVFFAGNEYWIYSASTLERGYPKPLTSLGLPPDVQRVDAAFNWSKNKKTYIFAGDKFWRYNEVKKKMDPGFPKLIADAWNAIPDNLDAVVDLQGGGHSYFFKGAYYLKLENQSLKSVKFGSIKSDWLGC

Row | SMILES | pKi (MMP-2h; read-out: Ki MMP-2h) | pKi (MMP-3h; read-out: Ki MMP-3h) | pKi (MMP-8h; read-out: Ki MMP-8h) | pKi (MMP-9h; read-out: Ki MMP-9h) | pKi (MMP-10h; read-out: Ki MMP-10h) | pKi (MMP-12h; read-out: Ki MMP-12h) | pKi (MMP-13h; read-out: Ki MMP-13h) | pKi (MMP-14h; read-out: Ki MMP-14h) | pKi (MMP-2h) | pKi (MMP-3h) | pKi (MMP-8h) | pKi (MMP-9h) | pKi (MMP-10h) | pKi (MMP-12h) | pKi (MMP-13h) | pKi (MMP-14h)
1 | NC(=O)[C@H](Cc1ccc(O)cc1)NC(=O)[C@H](CCC(=O)O)NC(=O)CCc1ccc(-c2ccc(-c3ccccc3)cc2)cc1 [Compound 65, (S)-5-((S)-1-amino-3-(4-hydroxyphenyl)-1-oxopropan-2-ylamino)-4-(3-(4′-phenylbiphenyl-4-yl)propanamido)-5-oxopentanoic acid] | 7.14 | 6.21 | 6.10 | < 6.00 | 6.92 | 8.18 | 7.48 | < 6.00 | – | – | – | – | – | – | – | –
2 | NC(=O)[C@H](CCC(=O)O)NC(=O)[C@H](CCC(=O)O)NC(=O)CCc1ccc(C#Cc2ccccc2)cc1 [Compound 30, (S)-5-amino-4-((S)-4-carboxy-2-(3-(4-(phenylethynyl)phenyl)propanamido)butanamido)-5-oxopentanoic acid] | < 6.00 | < 6.00 | 6.09 | 6.63 | < 6.00 | 6.81 | 6.22 | < 6.00 | – | – | – | – | – | – | – | –
3 | NC(=O)[C@H](CCC(=O)O)NC(=O)[C@H](CCC(=O)O)NC(=O)CCc1ccc(Oc2ccccc2)cc1 [Compound 28, (S)-5-amino-4-((S)-4-carboxy-2-(3-(4-phenoxyphenyl)propanamido)butanamido)-5-oxopentanoic acid] | < 6.00 | < 5.30 | < 6.00 | < 5.00 | < 6.00 | 6.07 | 6.51 | < 6.00 | – | – | – | – | – | – | – | –
4 | NCCCC[C@H](NC(=O)[C@H](CCC(=O)O)NC(=O)CCc1ccc(-c2cccs2)cc1)C(N)=O [Compound 82, (S)-5-((S)-1,6-diamino-1-oxohexan-2-ylamino)-5-oxo-4-(3-(4-(thiophen-2-yl)phenyl)propanamido)pentanoic acid] | 6.63 | < 5.00 | 7.14 | < 6.00 | < 6.00 | 7.36 | < 6.00 | < 6.00 | – | – | – | – | – | – | – | –
5 | NC(=O)[C@H](CC(=O)O)NC(=O)[C@H](CCC(=O)O)NC(=O)CCc1ccc(-c2ccc(-c3ccccc3)cc2)cc1 [Compound 64, (S)-5-((S)-1-amino-3-carboxy-1-oxopropan-2-ylamino)-4-(3-(4′-phenylbiphenyl-4-yl)propanamido)-5-oxopentanoic acid] | 7.26 | 6.77 | 6.54 | < 6.00 | 7.46 | 8.48 | 7.64 | < 5.30 | – | – | – | – | – | – | – | –
6 | NCCCC[C@H](NC(=O)CCc1ccc(-c2ccc(-c3ccccc3)cc2)cc1)C(=O)N[C@@H](CCC(=O)O)C(N)=O [Compound 73, (S)-5-amino-4-((S)-6-amino-2-(3-(4′-phenylbiphenyl-4-yl)propanamido)hexanamido)-5-oxopentanoic acid] | 6.27 | 6.52 | < 6.00 | < 5.00 | < 6.00 | 6.60 | 7.01 | < 5.00 | – | – | – | – | – | – | – | –
7 | NC(=O)CC[C@H](NC(=O)CCc1ccc(-c2ccc(-c3ccccc3)cc2)cc1)C(=O)N[C@@H](CCC(=O)O)C(N)=O [Compound 72, (S)-5-amino-4-((S)-5-amino-2-(3-(4′-phenylbiphenyl-4-yl)propanamido)-5-oxopentanamido)-5-oxopentanoic acid] | – | – | – | – | – | – | – | – | 6.41 | 7.19 | < 6.00 | < 5.30 | < 6.00 | 6.87 | 6.74 | < 5.30
8 | CC(C)C[C@H](NC(=O)[C@H](CCC(=O)O)NC(=O)CCc1ccc(-c2ccccc2)cc1)C(N)=O [Compound 50, (S)-5-((S)-1-amino-4-methyl-1-oxopentan-2-ylamino)-4-(3-(biphenyl-4-yl)propanamido)-5-oxopentanoic acid] | < 6.00 | < 4.30 | 6.44 | < 5.30 | < 5.30 | 7.12 | < 6.00 | < 5.30 | – | – | – | – | – | – | – | –
9 | NC(=O)[C@H](CCC(=O)O)NC(=O)[C@H](CO)NC(=O)CCc1ccc(-c2ccc(-c3ccccc3)cc2)cc1 [Compound 78, (S)-5-amino-4-((S)-3-hydroxy-2-(3-(4′-phenylbiphenyl-4-yl)propanamido)propanamido)-5-oxopentanoic acid] | 6.14 | 6.94 | < 6.00 | < 5.30 | < 5.30 | 6.69 | 6.44 | < 6.00 | – | – | – | – | – | – | – | –
10 | NC(=O)CC[C@H](NC(=O)[C@H](CCC(=O)O)NC(=O)CCc1cc(-c2ccc(-c3ccccc3)cc2)no1)C(N)=O [Compound 21, (S)-4-(3-(3-(biphenyl-4-yl)isoxazol-5-yl)propanamido)-5-((S)-1,5-diamino-1,5-dioxopentan-2-ylamino)-5-oxopentanoic acid] | 7.41 | 6.98 | 6.58 | < 6.00 | 6.59 | 8.27 | 7.31 | < 6.00 | – | – | – | – | – | – | – | –
11 | NC(=O)[C@H](CCC(=O)O)NC(=O)[C@H](CC(=O)O)NC(=O)CCc1cc(-c2ccc(-c3ccccc3)cc2)no1 [Compound 17, (S)-5-amino-4-((S)-2-(3-(3-(biphenyl-4-yl)isoxazl-5-yl)propanamido)-3-carboxypropanamido)-5-oxopentanoic acid] | 7.19 | 6.16 | < 6.00 | < 6.00 | < 6.00 | 7.28 | 7.44 | < 5.30 | – | – | – | – | – | – | – | –
12 | NC(=O)CC[C@H](NC(=O)CCc1cc(-c2ccc(-c3ccccc3)cc2)no1)C(=O)N[C@@H](CCC(=O)O)C(N)=O [Compound 20, (S)-5-amino-4-((S)-5-amino-2-(3-(3-(biphenyl-4-yl)isoxazol-5-yl)propanamido)-5-oxopentanamido)-5-oxopentanoic acid] | 6.08 | < 6.00 | < 6.00 | < 6.00 | < 5.30 | 6.39 | 6.63 | < 5.00 | – | – | – | – | – | – | – | –
13 | NC(=O)[C@H](CC(=O)O)NC(=O)[C@H](CCC(=O)O)NC(=O)CCc1ccc(-c2ccccc2)cc1 [Compound 45, (S)-5-((S)-1-amino-3-carboxy-1-oxopropan-2-ylamino)-4-(3-(biphenyl-4-yl)propanamido)-5-oxopentanoic acid] | 6.05 | < 5.30 | 6.63 | < 6.00 | < 6.00 | 7.43 | < 6.00 | < 5.30 | – | – | – | – | – | – | – | –
14 | NC(=O)[C@H](CO)NC(=O)[C@H](CCC(=O)O)NC(=O)CCc1ccc(-c2ccccc2)cc1 [Compound 49, (S)-5-((S)-1-amino-3-hydroxy-1-oxopropan-2-ylamino)-4-(3-(biphenyl-4-yl)propanamido)-5-oxopentanoic acid] | 6.10 | < 5.30 | 6.69 | < 6.00 | < 6.00 | 7.39 | < 6.00 | < 6.00 | – | – | – | – | – | – | – | –
15 | C[C@H](NC(=O)[C@H](CCC(=O)O)NC(=O)CCc1ccc(-c2ccc(-c3ccccc3)cc2)cc1)C(N)=O [Compound 66, (S)-5-((S)-1-amino-1-oxopropan-2-ylamino)-4-(3-(4′-phenylbiphenyl-4-yl)propanamido)-5-oxopentanoic acid] | 7.31 | 6.62 | 6.27 | < 5.00 | 6.89 | 8.66 | 7.79 | < 5.00 | – | – | – | – | – | – | – | –
16 | O=C(O)CC[C@H](NC(=O)CCc1ccc(-c2ccccc2)cc1)C(=O)Nc1cccc(CC(=O)O)c1 [Compound 52, (S)-4-(3-(biphenyl-4-yl)propanamido)-5-(3-(carboxymethyl)phenylamino)-5-oxopentanoic acid] | 6.26 | < 5.30 | 7.20 | < 6.00 | 6.36 | 7.90 | < 6.00 | < 6.00 | – | – | – | – | – | – | – | –
17 | NC(=O)[C@H](CCC(=O)O)NC(=O)[C@H](CCCC(=O)O)NC(=O)CCc1ccc(-c2cc(-c3ccccc3)cs2)cc1 [Compound 102, (S)-6-((S)-1-amino-4-carboxy-1-oxobutan-2-ylamino)-6-oxo-5-(3-(4-(4-phenylthiophen-2-yl)phenyl)propanamido)hexanoic acid] | – | – | – | – | – | – | – | – | < 6.00 | < 5.00 | < 5.30 | < 5.30 | < 5.30 | 7.25 | 6.20 | < 5.00
18 | NC(=O)[C@H](CCC(=O)O)NC(=O)[C@H](CCC(=O)O)NC(=O)CCc1ccc(-c2nc3ccccc3s2)cc1 [Compound 39, (S)-5-amino-4-((S)-2-(3-(4-(benzo[d]thiazol-2-yl)phenyl)propanamido)-4-carboxybutanamido)-5-oxopentanoic acid] | – | – | – | – | – | – | – | – | 6.82 | 7.06 | 6.84 | 6.21 | 7.00 | 8.66 | 6.87 | 6.26
